According to patent publication US11813306B2, “Cyclic tetramer compounds as proprotein convertase subtilisin/kexin type 9 (PCSK9) inhibitors for the treatment of metabolic disorders” (NOVARTIS AG, priority 2018, dated 2023):

Molecular target: human PCSK9 (Homo sapiens, UniProt Q8NBP7)
Experiment: PCSK9 ligand binding assay (TR-FRET): interference with binding of human PCSK9 to human LDLR
Details: for IC50: Human PCSK9 Alexa Fluor 647 / Human LDLR extracellular domain-Europium Kryptate; for Max % inhibition: efficacy (Amax), 100% = 1 uM unlabeled human PCSK9, 0% = DMSO
How it was run: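 Read-out was TR-FRET ratio (665 nm over 615 nm, 330 nm excitation) between Alexa Fluor 647-human PCSK9 (16 nM added) and Europium Kryptate-human LDLR ectodomain (4 nM added). Compound and PCSK9 were mixed 30 min before LDLR, then incubated 2 h. Inhibition was normalised to DMSO and unlabelled-PCSK9 controls, giving IC50 and Amax.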

human PCSK9, sequence (Q8NBP7 153-692): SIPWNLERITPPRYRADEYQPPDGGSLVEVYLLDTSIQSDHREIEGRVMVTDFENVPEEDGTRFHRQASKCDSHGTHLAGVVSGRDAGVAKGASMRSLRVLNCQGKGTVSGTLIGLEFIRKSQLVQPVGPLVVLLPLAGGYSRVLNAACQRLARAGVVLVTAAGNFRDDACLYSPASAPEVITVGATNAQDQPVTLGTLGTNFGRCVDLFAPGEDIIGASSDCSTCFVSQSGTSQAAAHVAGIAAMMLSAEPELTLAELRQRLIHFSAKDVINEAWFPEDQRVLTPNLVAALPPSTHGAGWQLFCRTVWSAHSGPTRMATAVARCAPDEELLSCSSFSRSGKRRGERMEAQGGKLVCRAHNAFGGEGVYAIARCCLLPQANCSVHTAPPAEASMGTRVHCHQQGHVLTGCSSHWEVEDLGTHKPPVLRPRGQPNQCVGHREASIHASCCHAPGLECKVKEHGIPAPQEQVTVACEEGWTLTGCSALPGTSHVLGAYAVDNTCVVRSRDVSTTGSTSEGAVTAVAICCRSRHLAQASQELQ
human PCSK9, sequence (Q8NBP7 31-152 partner limits assumed): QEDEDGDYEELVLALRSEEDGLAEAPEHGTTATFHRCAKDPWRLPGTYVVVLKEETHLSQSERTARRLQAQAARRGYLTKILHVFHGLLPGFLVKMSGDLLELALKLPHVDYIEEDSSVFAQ

IC50 | Max % inhibition | SMILES
1.21 nM | 111.6% | C[C@H]1C(=O)N[C@@H](CO)C(=O)N[C@@]2(Cc3ccc(Cl)cc3)CCCN(C2)C(=O)[C@H](CC2CC2)CC(=O)N1Cc1c(F)cc(Cl)cc1Oc1ccc(-c2cnc(CN(C)C(C)(C)C)n2C)cc1 [Compound 163, (3R, 7S, 10S, 13R)-6-(2-(4-(2-((tert-butyl(methyl)amino)methyl)-1-methyl-1H-imidazol-5-yl)phenoxy)-4-chloro-6-fluorobenzyl)-13-(4-chlorobenzyl)-3-(cyclopropylmethyl)-10-(hydroxymethyl)-7-methyl-1,6,9,12-tetraazabicyclo[11.3.1]heptadecane-2,5,8,11-tetraone]
0.509 nM | 101.6% | C[C@H]1C(=O)N[C@@H](CO)C(=O)N[C@@]2(Cc3ccc(Cl)cc3)CCCN(C2)C(=O)[C@H](Cc2c(F)cccc2F)CC(=O)N1Cc1c(F)cc(Cl)cc1Oc1ccc(-c2cnc(CN(C)C)n2C)cc1 [Compound 34, (3R, 7S, 10S, 13R)-6-(4-chloro-2-(4-(2-((dimethylamino)methyl)-1-methyl-1H-imidazol-5-yl)phenoxy)-6-fluorobenzyl)-13-(4-chlorobenzyl)-3-(2,6-difluorobenzyl)-10-(hydroxymethyl)-7-methyl-1,6,9,12-tetraazabicyclo[11.3.1]heptadecane-2,5,8,11-tetraone]
0.33 nM | 115.5% | C[C@H]1C(=O)N[C@@H](CO)C(=O)N[C@@]2(Cc3ccc(Cl)cc3)CCCN(C2)C(=O)[C@H](C2CC(F)(F)C2)CC(=O)N1Cc1c(F)cc(Cl)cc1Oc1ccc(-c2cnc(CN(C)C)n2C)cc1 [Compound 161, (3S, 7S, 10S, 13R)-6-(4-chloro-2-(4-(2-((dimethylamino)methyl)-1-methyl-1H-imidazol-5-yl)phenoxy)-6-fluorobenzyl)-13-(4-chlorobenzyl)-3-(3,3-difluorocyclobutyl)-10-(hydroxymethyl)-7-methyl-1,6,9,12-tetraazabicyclo[11.3.1]heptadecane-2,5,8,11-tetraone]
0.463 nM | 109.3% | COC[C@@H]1NC(=O)[C@H](C)N(Cc2ccc(Cl)cc2Oc2ccc(-c3cnc(CN(C)C)n3C)cc2)C(=O)C[C@@H](Cc2cccnc2)C(=O)N2CCC[C@@](Cc3ccc(Cl)cc3)(C2)NC1=O.Cl [Compound 23, (3R, 7S, 10S, 13R)-6-(4-chloro-2-(4-(2-((dimethylamino)methyl)-1-methyl-1H-imidazol-5-yl)phenoxy)benzyl)-13-(4-chlorobenzyl)-10-(methoxymethyl)-7-methyl-3-(pyridin-3-ylmethyl)-1,6,9,12-tetraazabicyclo[11.3.1]heptadecane-2,5,8,11-tetraone]
0.95 nM | 112.3% | C[C@H]1C(=O)N[C@@H](CO)C(=O)N[C@@]2(Cc3ccc(Cl)cc3)CCCN(C2)C(=O)[C@H](CC2CC2)CC(=O)N1Cc1c(F)cc(Cl)cc1Oc1ccc(-c2cnc(CN(C)C)n2C)cc1 [Compound 145, (3R, 7S, 10S, 13R)-6-(4-chloro-2-(4-(2-((dimethylamino)methyl)-1-methyl-1H-imidazol-5-yl)phenoxy)-6-fluorobenzyl)-13-(4-chlorobenzyl)-3-(cyclopropylmethyl)-10-(hydroxymethyl)-7-methyl-1,6,9,12-tetraazabicyclo[11.3.1]heptadecane-2,5,8,11-tetraone]
0.334 nM | 104.2% | CC(C)[C@@H]1NC(=O)N(Cc2ccc(Cl)cc2Oc2ccc(-c3cnc(CN(C)C)n3C)cc2)[C@@H](C)C(=O)N[C@@H](CO)C(=O)N[C@@]2(Cc3ccc(Cl)cc3)CCCN(C2)C1=O.Cl [Compound 67, (3S, 7S, 10S, 13R)-6-(4-chloro-2-(4-(2-((dimethylamino)methyl)-1-methyl-1H-imidazol-5-yl)phenoxy)benzyl)-13-(4-chlorobenzyl)-10-(hydroxymethyl)-3-isopropyl-7-methyl-1,4,6,9,12-pentaazabicyclo[11.3.1]heptadecane-2,5,8,11-tetraone]
0.342 nM | 119.0% | C[C@H]1C(=O)N[C@@H](CO)C(=O)N[C@@]2(Cc3ccc(Cl)cc3)CCCN(C2)C(=O)[C@H](CC(F)(F)F)CC(=O)N1Cc1c(F)cc(Cl)cc1Oc1ccc(-c2cnc(CN3CCCC3)n2C)cc1 [Compound 15, (3S, 7S, 10S, 13R)-6-(4-chloro-2-fluoro-6-(4-(1-methyl-2-(pyrrolidin-1-ylmethyl)-1H-imidazol-5-yl)phenoxy)benzyl)-13-(4-chlorobenzyl)-10-(hydroxymethyl)-7-methyl-3-(2,2,2-trifluoroethyl)-1,6,9,12-tetraazabicyclo[11.3.1]heptadecane-2,5,8,11-tetraone]
0.584 nM | 104.5% | C[C@H]1C(=O)N[C@@H](CO)C(=O)N[C@@]2(Cc3ccc(Cl)cc3)CCCN(C2)C(=O)CCC(=O)N1Cc1c(OCC(F)(F)F)cc(Cl)cc1Oc1ccc(-c2cnc(CN(C)C)n2C)cc1 [Compound 36, (7S, 10S, 13R)-6-(4-chloro-2-(4-(2-((dimethylamino)methyl)-1-methyl-1H-imidazol-5-yl)phenoxy)-6-(2,2,2-trifluoroethoxy)benzyl)-13-(4-chlorobenzyl)-10-(hydroxymethyl)-7-methyl-1,6,9,12-tetraazabicyclo[11.3.1]heptadecane-2,5,8,11-tetraone]
0.851 nM | 117.9% | CC[C@@H]1CC(=O)N(Cc2c(F)cc(Cl)cc2Oc2ccc(-c3cnc(CN(C)C)n3C)cc2)[C@@H](C)C(=O)N[C@@H](COC)C(=O)N[C@@]2(Cc3ccc(Cl)cc3)CCCN(C2)C1=O [Compound 63]

The next lines start with the compound.

SMILES | IC50 | Max % inhibition
COC[C@@H]1NC(=O)[C@H](C)N(Cc2ccc(Cl)cc2Oc2cc(F)c(-c3cnc(CN4CCCC4)n3C)c(F)c2)C(=O)C[C@@H](Cc2ccccc2)C(=O)N(C)C[C@@H](Cc2ccc(Cl)cc2)N(C)C1=O.Cl [Compound 117, (2S, 5S, 8R, 12R)-12-benzyl-1-(4-chloro-2-(3,5-difluoro-4-(1-methyl-2-(pyrrolidin-1-ylmethyl)-1H-imidazol-5-yl)phenoxy)benzyl)-8-(4-chlorobenzyl)-5-(methoxymethyl)-2,7,10-trimethyl-1,4,7,10-tetraazacyclotetradecane-3,6,11,14-tetraone] | 35.1 nM | 98.9%
COC[C@@H]1NC(=O)[C@H](C)N(Cc2c(F)cc(Cl)cc2Oc2ccc(-c3cnc(CN(C)C)n3C)cc2)C(=O)C[C@@H](Cc2cccc(C)[n+]2[O-])C(=O)N2CCC[C@@](Cc3ccc(Cl)cc3)(C2)N(C)C1=O [Compound 168, 2-(((3R, 7S, 10S, 13R)-6-(4-chloro-2-(4-(2-((dimethylamino)methyl)-1-methyl-1H-imidazol-5-yl)phenoxy)-6-fluorobenzyl)-13-(4-chlorobenzyl)-10-(methoxymethyl)-7,12-dimethyl-2,5,8,11-tetraoxo-1,6,9,12-tetraazabicyclo[11.3.1]heptadecan-3-yl)methyl)-6-methylpyridine 1-oxide] | 0.81 nM | 114.9%
C[C@H](c1ncc(-c2ccc(Oc3cc(Cl)ccc3CN3C(=O)C[C@@H]([C@@H]4CCc5ccccc54)C(=O)N4CCC[C@@](Cc5ccc(Cl)cc5)(C4)NC(=O)[C@H](CO)NC(=O)[C@@H]3C)cc2)n1C)N(C)C.Cl [Compound 70, (3S, 7S,10S, 13R)-6-(4-chloro-2-(4-(2-((R)-1-(dimethylamino)ethyl)-1-methyl-1H-imidazol-5-yl)phenoxy)benzyl)-13-(4-chlorobenzyl)-3-((S)-2,3-dihydro-1H-inden-1-yl)-10-(hydroxymethyl)-7-methyl-1,6,9,12-tetraazabicyclo[11.3.1]heptadecane-2,5,8,11-tetraone] | 1.48 nM | 110.7%
C[C@H]1C[C@H]([C@@H]2CC(=O)N(Cc3ccc(Cl)cc3Oc3ccc(-c4cnc(CN5CCCC5)n4C)cc3)[C@@H](C)C(=O)N[C@@H](CO)C(=O)N(C)[C@H](Cc3ccc(Cl)cc3)CN(C)C2=O)c2ccccc21.Cl [Compound 93, (2S, 5S, 8R, 12S)-1-(4-chloro-2-(4-(1-methyl-2-(pyrrolidin-1-ylmethyl)-1H-imidazol-5-yl)phenoxy)benzyl)-8-(4-chlorobenzyl)-5-(hydroxymethyl)-2,7,10-trimethyl-12-((1R, 3S)-3-methyl-2,3-dihydro-1H-inden-1-yl)-1,4,7,10-tetraazacyclotetradecane-3,6,11,14-tetraone] | 1.4 nM | 103.0%
C[C@H]1C(=O)N[C@@H](CO)C(=O)N(C)[C@@]2(Cc3ccc(Cl)cc3)CCCN(C2)C(=O)[C@H](Cc2c(F)cc(F)cc2F)CC(=O)N1Cc1ccc(Cl)cc1Oc1ccc(-c2cnc(CN(C)C)n2C)cc1 [Compound 37, (3R, 7S, 10S, 13R)-6-(4-chloro-2-(4-(2-((dimethylamino)methyl)-1-methyl-1H-imidazol-5-yl)phenoxy)benzyl)-13-(4-chlorobenzyl)-10-(hydroxymethyl)-7,12-dimethyl-3-(2,4,6-trifluorobenzyl)-1,6,9,12-tetraazabicyclo[11.3.1]heptadecane-2,5,8,11-tetraone] | 0.445 nM | 112.0%
COC[C@@H]1NC(=O)[C@H](C)N(Cc2ccc(Cl)cc2Oc2ccc(-c3cnc(CN4CCCC4)n3C)cc2)C(=O)C[C@@H](Cc2ccccc2)C(=O)NC[C@@H](Cc2ccc(Cl)cc2)N(C)C1=O.Cl [Compound 92, (2S, 5S, 8R, 12R)-12-benzyl-1-(4-chloro-2-(4-(1-methyl-2-(pyrrolidin-1-ylmethyl)-1H-imidazol-5-yl)phenoxy)benzyl)-8-(4-chlorobenzyl)-5-(methoxymethyl)-2,7-dimethyl-1,4,7,10-tetraazacyclotetradecane-3,6,11,14-tetraone] | 2.37 nM | 104.1%
